Reference: US20240018136A1, “CDK Inhibitors And Their Use As Pharmaceuticals” (Prelude Therapeutics, Incorporated, priority 2022, published 2024)

Columns and labels:
OVCAR3 p-RB = experiment: pRB ICW assay in OVCAR3 cells; assay type: cell-based; settings: Homo sapiens, OVCAR-3, incubated with compound for 2 hours
Method: pRB ICW Assay in OVCAR3 Cells
OVCAR3 cells were maintained in RPMI (Corning, Catalog #: 10-040-CV) supplemented with 10% v/v FBS (Gibco, Catalog #: 26140-079), 1% v/v Penicillin Streptomycin (Gibco, Catalog #15140-122.) OVCAR3 cells grown at log phase were trypsinized, counted, and resuspended in fresh medium to reach a final density of 6.7e4 cells/mL and 75 μL of culture were dispensed into a 384-well plate (Falcon, cat #353962) using Multidrop Combi dispenser (Thermo Scientific). The next day, compounds were dispensed as a 9-point, ½ log serial dilution using a Tecan digital dispenser (D300e), and cells were incubated with compound for 2 hours in a humidified incubator at 37° C. A reference compound at a final concentration of 10 μM was used as a control for maximum inhibition. Each compound was tested in duplicates in each experiment. At the end of the incubation, 25 μL of 16% paraformaldehyde (Electron Microscopy, cat #15710) was slowly added to each well and the plate was incubated at room temperature (RT) for 30 minutes to fix cells. Cells were then permeabilized by incubating with 50 μL/well of wash buffer (lx PBS with 0.1% Triton X-100) 5×5 minutes, followed by 1 hour blocking with 30 μL/well of Odyssey blocking buffer (Li-COR, cat #927-40000), all at RT. Anti-phosphor RB antibody (Cell signaling 8516S) was diluted 1:1000 in Odyssey blocking buffer and 20 μL was added to all wells and incubated overnight in 4° C. with gently rocking. The next day, cells were washed 5×5 min with 50 μL/well of wash buffer, followed with 1 hour incubation with secondary antibody and DRAQ5 diluted in Odyssey blocking buffer (1:500 dilution for secondary antibody and 1:2000 dilution for DRAQ5), 5×5 min washes, and one last wash with water. Plates were dried in 37° C. oven for 5 min and scanned using Li-COR Odyssey CLx imaging system to acquire intensities at 700 and 800 nm channels.

CDK4/Cyclin D1 = target: T1, CDK4/Cyclin D1 (Homo sapiens, UniProt P11802); experiment: CDK4/CyclinD1 enzymatic activity assay (TR-FRET); assay type: biochemical; settings: ATP 2 mM final, read-out: CDK4_D1 IC50
T1 construct: purchased ProQinase; host or cells: insect cell
Method: CDK4/CyclinD1 Enzymatic Activity Assay
(§1) The inhibitory activity of compounds was evaluated in vitro using TR-FRET assay with white 384-well low volume microplate (Greiner Bio-One). CDK4/Cyclin D1 catalyzed phosphorylation of peptide in the presence and absence of compounds was measured and used in IC5 determination. Recombinant protein complex CDK4/Cyclin D1, expressed from insect cell, was purchased from ProQinase. Testing compounds were dissolved in DMSO at 1 mM and tested in 9-dose IC50 mode. The reaction mixture was prepared by mixing CDK4/CyclinD1 (1 nM final), ULight-4E-BP1 (100 nM final, Perkinelmer, TRF0128-D), and ATP (2 mM final) in assay buffer (20 mM of HEPES pH 7.4, 1 mM of EGTA, 0.05% BSA, 0.005% Tween 20, and 1 mM TCEP). The compound of interest in DMSO was added to each well in 3-fold serial dilution by dispenser (TECAN D300E) to make a 9.9 μL of reaction mixture. After 20 minutes preincubation at room temperature, 0.1 μL MgCl2 (10 mM final) was added to initiate the reaction. Following a 45 minute incubation at 37° C., the reaction was stopped by addition of 2 μL of quenching buffer consisting of Lance detection buffer (Perkinelmer CR97-100C), LANCE Ultra Europium-anti-P-4E-BP1 (Perkinelmer, TRF0216-D), EDTA, and incubate at room temperature for an additional 60 minutes in the dark. The reaction signal was measured by Envision multimode plate reader (PerkinElmer, 2102-0010). IC50 values were determined by fitting the data to the standard 4 parameters with Hill Slope using GraphPad Prism software.

CDK2/Cyclin E2 = CDK2/Cyclin E2 (Homo sapiens, UniProt P24941); experiment: CDK2/CyclinE2 enzymatic activity assay (TR-FRET); assay type: biochemical; settings: ATP 1 mM final, read-out: CDK2_E1 IC50
Method: CDK2/CyclinE2 Enzymatic Activity Assay
as §1, with “Bio-One). CDK2/Cyclin E2” for “Bio-One). CDK4/Cyclin D1”, “in IC50” for “in IC5”, “complex CDK2/Cyclin E2,” for “complex CDK4/Cyclin D1,”, “mixing CDK2/CyclinE2” for “mixing CDK4/CyclinD1”, “ULight-4E-BP1 (50” for “ULight-4E-BP1 (100”, “ATP (1” for “ATP (2”

T1 sequence (P11802 whole entry): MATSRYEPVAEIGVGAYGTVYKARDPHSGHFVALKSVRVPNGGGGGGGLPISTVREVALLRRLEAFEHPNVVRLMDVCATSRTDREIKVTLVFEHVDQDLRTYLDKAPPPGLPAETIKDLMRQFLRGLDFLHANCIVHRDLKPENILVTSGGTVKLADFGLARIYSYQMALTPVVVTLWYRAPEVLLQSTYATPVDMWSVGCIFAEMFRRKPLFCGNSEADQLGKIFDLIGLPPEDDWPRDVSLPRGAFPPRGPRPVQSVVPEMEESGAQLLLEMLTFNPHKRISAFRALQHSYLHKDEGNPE
T1 sequence (P24385 whole entry partner): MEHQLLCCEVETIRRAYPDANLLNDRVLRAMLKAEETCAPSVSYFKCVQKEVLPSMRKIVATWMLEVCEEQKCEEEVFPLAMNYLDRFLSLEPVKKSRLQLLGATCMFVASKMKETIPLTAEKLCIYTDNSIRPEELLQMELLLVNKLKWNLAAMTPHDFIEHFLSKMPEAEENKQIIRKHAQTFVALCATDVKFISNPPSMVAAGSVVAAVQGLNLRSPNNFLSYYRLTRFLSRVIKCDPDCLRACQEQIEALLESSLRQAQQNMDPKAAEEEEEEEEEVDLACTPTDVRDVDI

| Structure (SMILES) | IC50 (OVCAR3 p-RB) | IC50 (CDK4/Cyclin D1) | IC50 (CDK2/Cyclin E2) |
| --- | --- | --- | --- |
| Cn1cc(S(=O)(=O)N2CCC(Nc3ncc(C(F)(F)F)c(-c4cnc(C(O)C5CC5)s4)n3)CC2)cn1 (stereo not drawn) [Example 84, cyclopropyl(5-(2-((1-((1-methyl-1H-pyrazol-4-yl)sulfonyl)piperidin-4-yl)amino)-5-(trifluoromethyl)pyrimidin-4-yl)thiazol-2-yl)methanol] | ≤ 100 nM | ≤ 100 nM | ≤ 100 nM |
| Cn1cc(S(=O)(=O)N2CCC(Nc3ncc(C(F)(F)F)c(-c4cnc(C(O)C(F)(F)F)s4)n3)CC2)cn1 (stereo not drawn) [Example 89, 2,2,2-trifluoro-1-(5-(2-((1-((1-methyl-1H-pyrazol-4-yl)sulfonyl)piperidin-4-yl)amino)-5-(trifluoromethyl)pyrimidin-4-yl)thiazol-2-yl)ethan-1-ol] | ≤ 100 nM | ≤ 100 nM | ≤ 100 nM |
| Cc1ncc(-c2nc(NC3CCN(S(=O)(=O)C4CC4)CC3)ncc2C(F)(F)F)s1 [Example 46, N-(1-(Cyclopropylsulfonyl)piperidin-4-yl)-4-(2-methylthiazol-5-yl)-5-(trifluoromethyl)pyrimidin-2-amine] | 100 to 1000 nM | 100 to 1000 nM | ≤ 100 nM |
| Cn1cnc(S(=O)(=O)N2CCC(Nc3ncc(C(F)(F)F)c(-c4cnc(C(O)C(C)(C)O)s4)n3)CC2)c1 (stereo not drawn) [Example 75, 2-methyl-1-(5-(2-((1-((1-methyl-1H-imidazol-4-yl)sulfonyl)piperidin-4-yl)amino)-5-(trifluoromethyl)pyrimidin-4-yl)thiazol-2-yl)propane-1,2-diol] | 100 to 1000 nM | ≤ 100 nM | ≤ 100 nM |
| CN(C)c1ncc(-c2nc(NC3CCN(S(C)(=O)=O)CC3)ncc2C(F)(F)F)s1 [Example 29, N,N-dimethyl-5-[2-[(1-methylsulfonylpiperidin-4-yl)amino]-5-(trifluoromethyl)pyrimidin-4-yl]-1,3-thiazol-2-amine] | 100 to 1000 nM | ≤ 100 nM | ≤ 100 nM |
| CS(=O)(=O)N1CCC(Nc2ncc(C(F)(F)F)c(-c3cnc(-c4ccc(CO)cc4Cl)s3)n2)CC1 [Example 9, [3-Chloro-4-[5-[2-[(1-methylsulfonylpiperidin-4-yl)amino]-5-(trifluoromethyl)pyrimidin-4-yl]-1,3-thiazol-2-yl]phenyl]methanol] | 100 to 1000 nM | ≤ 100 nM | ≤ 100 nM |
| CC(O)c1ncc(-c2nc(N[C@@H]3CCN(S(=O)(=O)c4cnn(C)c4)C[C@@H]3F)ncc2C(F)(F)F)s1 (stereo partly drawn) [Example 97, 1-(5-(2-(((3S,4R)-3-fluoro-1-((1-methyl-1H-pyrazol-4-yl)sulfonyl)piperidin-4-yl)amino)-5-(trifluoromethyl)pyrimidin-4-yl)thiazol-2-yl)ethan-1-ol] | > 1000 nM | 100 to 1000 nM | 100 to 1000 nM |
| Cc1ncc(-c2nc(NC3CCN(S(=O)(=O)c4cn(C)cn4)CC3)ncc2C(F)(F)F)s1 [Example 58, N-[1-(1-Methylimidazol-4-yl)sulfonylpiperidin-4-yl]-4-(2-methyl-1,3-thiazol-5-yl)-5-(trifluoromethyl)pyrimidin-2-amine] | 100 to 1000 nM | ≤ 100 nM | ≤ 100 nM |
| CS(=O)(=O)N1CCC(Nc2ncc(C(F)(F)F)c(-c3cnc(C4=CCOCC4)s3)n2)CC1 [Example 2, 4-[2-(3,6-Dihydro-2H-pyran-4-yl)-1,3-thiazol-5-yl]-N-(1-methyl-sulfonylpiperidin-4-yl)-5-(trifluoromethyl)pyrimidin-2-amine] | 100 to 1000 nM | ≤ 100 nM | 100 to 1000 nM |
| COCc1nn(C)cc1S(=O)(=O)N1CCC(Nc2ncc(C(F)(F)F)c(-c3cnc(C(C)O)s3)n2)CC1 (stereo not drawn) [Example 86, 1-(5-(2-((1-((3-(methoxymethyl)-1-methyl-1H-pyrazol-4-yl)sulfonyl)piperidin-4-yl)amino)-5-(trifluoromethyl)pyrimidin-4-yl)thiazol-2-yl)ethan-1-ol] | ≤ 100 nM | ≤ 100 nM | ≤ 100 nM |
| Cn1cc(S(=O)(=O)N2CCC(Nc3ncc(C(F)(F)F)c(-c4cnc(CC(C)(C)O)s4)n3)CC2)cn1 [Example 67, 2-Methyl-1-(5-(2-((1-((1-methyl-1H-pyrazol-4-yl)sulfonyl)piperidin-4-yl)amino)-5-(trifluoromethyl)pyrimidin-4-yl)thiazol-2-yl)propan-2-ol] | ≤ 100 nM | ≤ 100 nM | ≤ 100 nM |
| CC(C)(O)Cc1ncc(-c2nc(NC3CCN(S(=O)(=O)CCCN4CCOCC4)CC3)ncc2C(F)(F)F)s1 [Example 79, 2-methyl-1-(5-(2-((1-((3-morpholinopropyl)sulfonyl)piperidin-4-yl)amino)-5-(trifluoromethyl)pyrimidin-4-yl)thiazol-2-yl)propan-2-ol] | 100 to 1000 nM | ≤ 100 nM | ≤ 100 nM |
| Cc1nn(CCO)cc1-c1ncc(-c2nc(NC3CCN(S(C)(=O)=O)CC3)ncc2C(F)(F)F)s1 [Example 17, 2-[3-methyl-4-[5-[2-[(1-methylsulfonylpiperidin-4-yl)amino]-5-(trifluoromethyl)pyrimidin-4-yl]-1,3-thiazol-2-yl]pyrazol-1-yl]ethanol] | 100 to 1000 nM | 100 to 1000 nM | 100 to 1000 nM |
| CC(O)c1ncc(-c2nc(NC3CCN(S(=O)(=O)c4cn(C)cn4)CC3)ncc2C(F)(F)F)s1 (stereo not drawn) [Example 83, 1-(5-(2-((1-((1-methyl-1H-imidazol-4-yl)sulfonyl)piperidin-4-yl)amino)-5-(trifluoromethyl)pyrimidin-4-yl)thiazol-2-yl)ethan-1-ol] | ≤ 100 nM | ≤ 100 nM | ≤ 100 nM |
| CC(C)(O)Cc1ncc(-c2nc(NC3CCN(S(=O)(=O)CCCN4CCC(C#N)CC4)CC3)ncc2C(F)(F)F)s1 [Example 78, 1-(3-((4-((4-(2-(2-hydroxy-2-methylpropyl)thiazol-5-yl)-5-(trifluoromethyl)pyrimidin-2-yl)amino)piperidin-1-yl)sulfonyl)propyl)piperidine-4-carbonitrile] | 100 to 1000 nM | ≤ 100 nM | ≤ 100 nM |
| CC(C)(O)Cc1ncc(-c2nc(N[C@H]3CCN(S(C)(=O)=O)C[C@H]3F)ncc2C(F)(F)F)s1 [Example 69, 1-(5-(2-(((3R,4S)-3-fluoro-1-(methylsulfonyl)piperidin-4-yl)amino)-5-(trifluoromethyl)pyrimidin-4-yl)thiazol-2-yl)-2-methylpropan-2-ol] | ≤ 100 nM | ≤ 100 nM | ≤ 100 nM |
